According to paper PMC5471521, “Novel selective β1-adrenoceptor antagonists for concomitant cardiovascular and respiratory disease” (The FASEB Journal, 2017):

Experiment: Seven-day oral dose range rat toxicity study
Type: in vivo
Protocol: Male Crl:CD rats (9 wk old, weighing 316.8–349.4 g on d 1; Charles River) were administered 1 oral dose of NDD-825.HCl in water that contained 0.5% (w/v) hydroxypropylmethylcellulose K15M, 0.5% (v/v) benzyl alcohol, and 0.4% (v/v) Tween-80 at 20, 90, or 300 mg/kg at a dose volume of 10 ml/kg for 7 consecutive days (4 animals per group). Blood samples were collected before and at time points during the 24 h that followed for bioanalysis. Animals were monitored for adverse clinical signs and body weight. Terminal blood samples were taken for clinical chemistry, and organs were harvested for microscopic examination (see Supplemental Data for full details). Three additional male rats per group received NDD-825.HCl on d 1 only to collect blood samples for plasma bioanalysis of compound toxicokinetics. NDD-825 was quantifiable in plasma of all animals up to 8 h after dose administration; […]. Systemic exposure to NDD-825 in terms of Cmax increased in approximate proportion with increasing dose, whereas for the same dose increase, AUC0-t increased in a supraproportional manner across the entire dose range. […]. […] Study was carried out by Aptuit (Verona, Italy).

With `O=C1NCc2cc(OCCNC[C@H](O)COc3ccc4c(c3)OC[C@@H](COCC3CC3)O4)ccc21` [NDD-825] the Tolerability (300 mg/kg once daily p.o. for 7 d (highest dose tested)) was “well tolerated”, the Change in triglycerides (7-d repeat oral dosing, top dose) was “dose-related increase in triglycerides” and the MTD at 7 d (male, Crl:CD, in vivo, 7-d repeat oral dosing, read-out: Maximum tolerated dose) was over 300 mg/kg/day. For the same compound, the Tmax (male, Crl:CD, plasma, oral 20, 90 or 300 mg/kg, read-out: tmax (toxicokinetics)) was 2 to 8 h, the “Increase of AUC0-t for a 15-fold increase in dose” value (oral, 20 to 300 mg/kg/d) was 31.4 fold and the “Increase of Cmax for a 15-fold increase in dose” value (oral, 20 to 300 mg/kg/d) was 12.4 fold.
